{
  "source": "patent US6890951B2",
  "about": "“Treatment of addiction and addiction-related behavior” (Brookhaven Science Associates LLC, priority 1998, dated 2005)",
  "key": {"[1]": {"test_system": "male Sprague-Dawley rats", "assay": "Food-induced conditioned place preference", "format": "in vivo", "excerpt": "In order to test food-induced CPP in rodents, four groups of rats were allowed access to food ad libitum during the entire 12 session of CPP procedure. The 12 session CPP procedure was exactly the same as the procedure used in the cocaine induced CPP studies except the appetitive substance was food rather than cocaine. […] The animals in all four groups were habituated to Froot Loops, a fruit-flavored breakfast cereal that is very appealing to laboratory rats, in the appropriate chamber in the test room during four habituating sessions. […] The amount of time spent in the paired and unpaired chambers was recorded using an automated device.\nIn this example the procedure outlined in Section 3 of Materials and Methods was followed."}, "[2]": {"test_system": "male Sprague-Dawley rats", "format": "in vivo", "excerpt": "In all rodent studies, male Sprague-Dawley rats were used (200-225 g, Taconic farms, Germantown, N.Y.). Animals were allowed to acclimate to the animal housing facility for at least 5 days prior to beginning the experiments. […] The conditioning procedure for the acquisition phase consisted of 12 sessions carried out consecutively over 12 days.\nThe animals in each group were randomly assigned to a 2×2 factorial design with one factor being the pairing chamber and the other factor being the order of conditioning. The animals that received either saline or cocaine were injected and confined to the appropriate compartment for 30 minutes.\n[…] The amount of time spent in each chamber was recorded using an automated infrared beam electronically coupled to a timer.\nIn this example the procedure outlined in Section 2 of Materials and Methods was followed."}, "[3]": {"test_system": "rhesus monkeys", "conditions": "cited from earlier work"}, "[4]": {"test_system": "freely moving rats", "assay": "Cocaine-induced stereotypy after a sensitizing regimen of cocaine", "format": "in vivo", "procedure": "The phenomenon of sensitization is observed with virtually all drugs of addiction. Sensitization is believed to play a role in the etiology of addiction.\nAnimals received 15 mg/kg i.p. of cocaine and stereotypy was determined in standard locomotor cages. For 6 consecutive days, animals received 15 mg/kg i.p. of cocaine once a day in their home cages. Eight days later, animals were rechallenged with 15 mg/kg i.p. of cocaine and stereotypy was determined. A five point rating scale was used to assess stereotypy and the rater was blind to the treatment received by each animal."}, "[5]": {"test_system": "male Sprague-Dawley rats", "assay": "Locomotor activity (Photobeam Activity System)", "format": "in vivo", "conditions": "GVG 150 mg/kg or 300 mg/kg i.p., 2.5 hours before", "procedure": "Animals were prehandled for 5 minutes each day for one week prior to the experiment to reduce handling stress. […] The animals were transported to the testing area one hour before each experiment. […] The locomotor cages themselves are 41.3×41.3×30.5 cm clear acrylic cages. The electronic system (Photobeam Activity system, San Diego Instruments, San Diego, Calif.) used to monitor locomotor activity consists of 16 infrared beams projecting across the cages from left to right and 16 beams from front to back. All the infrared beams are approximately 0.39 cm from the floor.\nIn this example the procedures outlined in Section 4 and 5 of Materials and Methods were followed."}, "[6]": {"test_system": "extracellular DA in the NACC", "assay": "Microdialysis: ethanol-induced increases in NACC DA", "format": "in vivo, rats", "conditions": "Rattus norvegicus", "from_the_text": "All animals were used under an IACUC-approved protocol and with strict adherence to the NIH guidelines. Adult male Sprague-Dawley rats (200-300 g, Taconic Farms), housed in the animals care facility under 12:12 light/dark conditions, were placed into 6 groups (n=5-9), anesthetized and siliconized guide cannulae were stereotactically implanted into the right NACC (2.0 mm anterior and 1.0 mm lateral to bregms, and 7.0 mm ventral to the cortical surface) at least 4 days prior to study. […] Animals were placed in bowls, and probes were inserted and flushed with ACSF overnight. On the day of the study, a minimum of three samples were injected to determine baseline stability. Samples were collected for 20 min. and injected on-line (CMA/160, BAS). The average Dopamine concentration of these three stable samples was defined as control (100%), and all subsequent treatment values were transformed to a percentage of that control. […] The high performance liquid chromatography (HPLC) system consists of a BAS reverse-phase column (3.0 μC-18), a BAS LC-4C electrochemical transducer with a dual/glassy carbon electrode set at 650 mV, a computer that analyzes data on-line using a commercial software package (Chromograph Bioanalytical Systems), and a dual pen chart recorder. The mobile phase (flow rate 1.0 ml/min) consisted of 7.0% methanol, 50 mM sodium phosphate monobasic, 1.0 mM sodium octyl sulfate, and 0.1 mm EDNA, pH 4.0. […] Upon completion of the study, animals were decapitated and frozen sections were obtained for probe placement verification.\nEthanol at a dose of 1.0 g/kg i.p. was administered to the animals."}, "[7]": {"conditions": "acquisition, 75 mg/kg GVG 2.5 hours prior to cocaine 20 mg/kg"}, "[8]": {"conditions": "acquisition, 75 mg/kg GVG/Saline pairing"}, "[9]": {"conditions": "acquisition, 112 mg/kg GVG 2.5 hours prior to cocaine 20 mg/kg"}, "[10]": {"conditions": "acquisition, 112 mg/kg GVG/Saline pairing"}, "[11]": {"conditions": "acquisition, 150 mg/kg GVG 2.5 hours prior to cocaine 20 mg/kg"}, "[12]": {"conditions": "acquisition, 150 mg/kg GVG/Saline pairing"}, "[13]": {"conditions": "acquisition, 300 mg/kg GVG 2.5 hours prior to cocaine 20 mg/kg"}, "[14]": {"conditions": "acquisition, 300 mg/kg GVG/Saline pairing"}, "[15]": {"conditions": "expression, Saline/Cocaine pairings, GVG 75 mg/kg on test day"}, "[16]": {"conditions": "expression, Saline/Cocaine pairings, GVG 112 mg/kg on test day"}, "[17]": {"conditions": "expression, Saline/Cocaine pairings, GVG 150 mg/kg on test day"}, "[18]": {"conditions": "expression, Saline/Cocaine pairings, GVG 300 mg/kg on test day"}, "[19]": {"conditions": "expression, Saline/Saline pairings, GVG 112 mg/kg on test day"}, "[20]": {"conditions": "expression, Saline/Saline pairings, GVG 150 mg/kg on test day"}, "[21]": {"conditions": "expression, Saline/Saline pairings, GVG 300 mg/kg on test day"}},
  "note": "Read-outs that look alike come from different tables or passages of the source.",
  "data": [
    {"smiles": "C=CC(N)CCC(=O)O", "note": "(racemic) [GVG, 4-amino-5-hexanoic acid]", "values": [
      {"measurement": "Time spent in chambers, Paired", "setting": "[1]; GVG 150 mg/kg ip / Food", "result": "9.4 ± 0.4", "unit": "min"},
      {"measurement": "Time spent in chambers, Unpaired", "setting": "[1]; GVG 150 mg/kg ip / Food", "result": "5.6 ± 0.5", "unit": "min"},
      {"measurement": "Time spent in chambers, Paired", "setting": "[1]; GVG 300 mg/kg ip / Food", "result": "9.0 ± 0.5", "unit": "min"},
      {"measurement": "Time spent in chambers, Unpaired", "setting": "[1]; GVG 300 mg/kg ip / Food", "result": "6.0 ± 0.5", "unit": "min"},
      {"measurement": "CPP response to food", "setting": "[1]; GVG 150 and 300 mg/kg", "result": "did not alter the CPP response to food"},
      {"measurement": "acquisition and expression of cocaine-induced CPP", "setting": "[2]; GVG 75 mg/kg, cocaine 20 mg/kg", "result": "not"},
      {"measurement": "Time spent in chambers, Paired", "setting": "[2]; [7]", "result": "9.1 ± 1.1", "unit": "min"},
      {"measurement": "Time spent in chambers, Unpaired", "setting": "[2]; [7]", "result": "5.9 ± 1.2", "unit": "min"},
      {"measurement": "Time spent in chambers, Paired", "setting": "[2]; [8]", "result": "7.3 ± 0.5", "unit": "min"},
      {"measurement": "Time spent in chambers, Unpaired", "setting": "[2]; [8]", "result": "7.7 ± 0.6", "unit": "min"},
      {"measurement": "Time spent in chambers, Paired", "setting": "[2]; [9]", "result": "8.2 ± 0.5", "unit": "min"},
      {"measurement": "Time spent in chambers, Unpaired", "setting": "[2]; [9]", "result": "6.8 ± 0.5", "unit": "min"},
      {"measurement": "Time spent in chambers, Paired", "setting": "[2]; [10]", "result": "7.6 ± 0.6", "unit": "min"},
      {"measurement": "Time spent in chambers, Unpaired", "setting": "[2]; [10]", "result": "7.4 ± 0.6", "unit": "min"},
      {"measurement": "Time spent in chambers, Paired", "setting": "[2]; [11]", "result": "7.9 ± 0.8", "unit": "min"},
      {"measurement": "Time spent in chambers, Unpaired", "setting": "[2]; [11]", "result": "7.1 ± 0.8", "unit": "min"},
      {"measurement": "Time spent in chambers, Paired", "setting": "[2]; [12]", "result": "7.8 ± 0.6", "unit": "min"},
      {"measurement": "Time spent in chambers, Unpaired", "setting": "[2]; [12]", "result": "7.2 ± 0.6", "unit": "min"},
      {"measurement": "Time spent in chambers, Paired", "setting": "[2]; [13]", "result": "7.6 ± 0.7", "unit": "min"},
      {"measurement": "Time spent in chambers, Unpaired", "setting": "[2]; [13]", "result": "7.2 ± 0.7", "unit": "min"},
      {"measurement": "Time spent in chambers, Paired", "setting": "[2]; [14]", "result": "7.2 ± 0.4", "unit": "min"},
      {"measurement": "Time spent in chambers, Unpaired", "setting": "[2]; [14]", "result": "7.8 ± 0.4", "unit": "min"},
      {"measurement": "Time spent in chambers, Paired", "setting": "[2]; [15]", "result": "10.6 ± 0.6^3 min"},
      {"measurement": "Time spent in chambers, Unpaired", "setting": "[2]; [15]", "result": "4.4 ± 0.9", "unit": "min"},
      {"measurement": "Time spent in chambers, Paired", "setting": "[2]; [16]", "result": "8.1 ± 0.7", "unit": "min"},
      {"measurement": "Time spent in chambers, Unpaired", "setting": "[2]; [16]", "result": "6.9 ± 0.6", "unit": "min"},
      {"measurement": "Time spent in chambers, Paired", "setting": "[2]; [17]", "result": "7.9 ± 0.3", "unit": "min"},
      {"measurement": "Time spent in chambers, Unpaired", "setting": "[2]; [17]", "result": "7.1 ± 0.3", "unit": "min"},
      {"measurement": "Time spent in chambers, Paired", "setting": "[2]; [18]", "result": "7.9 ± 0.5", "unit": "min"},
      {"measurement": "Time spent in chambers, Unpaired", "setting": "[2]; [18]", "result": "7.1 ± 0.6", "unit": "min"},
      {"measurement": "Time spent in chambers, Paired", "setting": "[2]; [19]", "result": "7.2 ± 0.3", "unit": "min"},
      {"measurement": "Time spent in chambers, Unpaired", "setting": "[2]; [19]", "result": "7.8 ± 0.3", "unit": "min"},
      {"measurement": "Time spent in chambers, Paired", "setting": "[2]; [20]", "result": "7.7 ± 0.2", "unit": "min"},
      {"measurement": "Time spent in chambers, Unpaired", "setting": "[2]; [20]", "result": "7.3 ± 1.1", "unit": "min"},
      {"measurement": "Time spent in chambers, Paired", "setting": "[2]; [21]", "result": "7.3 ± 0.4", "unit": "min"},
      {"measurement": "Time spent in chambers, Unpaired", "setting": "[2]; [21]", "result": "7.7 ± 0.3", "unit": "min"},
      {"measurement": "withdrawal signs or symptoms", "setting": "[3]; animals withdrawn from chronic GVG treatment", "result": "do not exhibit withdrawal signs or symptoms"},
      {"measurement": "self-administration of GVG", "setting": "[3]; rhesus monkeys", "result": "not self-administered"},
      {"measurement": "Stereotypies on Day 15", "setting": "[4]; 150 mg/kg i.p. of GVG 2 hrs. before, cocaine 15 mg/kg i.p. rechallenge after sensitizing regimen", "result": "2.3 ± 0.6"},
      {"measurement": "expression of cocaine-induced sensitization", "setting": "[4]; GVG 150 mg/kg i.p. 2.5 hours prior to the cocaine challenge", "result": "abolished the expression of cocaine-induced sensitization"},
      {"measurement": "Stereotypy score on Day 1", "setting": "[4]; cocaine 15 mg/kg i.p., baseline of the group later given GVG (no GVG on Day 1)", "result": "2.9 ± 0.4"},
      {"measurement": "locomotor activity compared to saline pretreated controls", "setting": "[5]", "result": "did not alter locomotor activity"},
      {"measurement": "inhibition at 300 mg/kg", "setting": "[6]", "result": "~50", "unit": "%"},
      {"measurement": "inhibition at 100 mg/kg", "setting": "[6]; read-out: inhibition of alcohol's ability to increase nucleus accumbens dopamine", "result": "~40", "unit": "%"}
    ]}
  ]
}
